The record followed here is patent publication US9051581B2, “Defense peptides against fungal infection and method of their use” (The Curators of the University of Missouri, priority 2010, dated 2015).

Assay [1] deals with P. pachyrhizi urediniospores. As to the kind of experiment: In vitro inhibition of urediniospore germ tube growth by phage-display peptide clones (initial assessment, repeated trials). To be noted: inhibition = 50% or greater germ tube inhibition after 8 h incubation; 10^13 virions ml^−1; field-collected urediniospores. The class given is cell-based, Phakopsora pachyrhizi. On the procedure: Representative, affinity-selected, phage-display peptide clones were initially assessed in vitro for the ability to inhibit urediniospore germ tube growth. Two-hundred fifty phage clones, randomly chosen from the final selection round, were amplified by E. coli infection, twice purified using PEG-precipitation, and re-suspended in sterile deionized water. Phage concentrations were calculated from UV absorbance measurements as virions μl^−1 (2).
A 25-μl water droplet containing ≈300 non-germinated urediniospores collected from soybean leaves in Florida was incubated on a microscope slide in the presence of a phage clone at a concentration equivalent to 10^13 virions ml^−1. […] Urediniospores were visualized using an Olympus Stereo Zoom Microscope (model SZH; Olympus Optical Co., LTD, Tokyo, Japan) at 50× magnification under transmitted light. Images of germinating urediniospores were captured in random microscope fields with a Spot Insight Color digital camera (Diagnostic Instruments, Inc., Sterling Heights, Mich.). Images were manipulated for viewing using Spot imaging software (version 4.0.3) set up with auto exposure to provide contrast of developing germ tubes against a green background. Comparative germination was assessed in three separate experiments. Phage clones that induced greater than 50% reduction in germ tube length (by visual estimation) compared to growth in water were evaluated in seven additional experiments.

Assay [2] deals with Phakopsora pachyrhizi urediniospores. As to the kind of experiment: Effect of phage-display peptide concentration on urediniospore germ tube elongation in vitro. The class given is cell-based. The following applies: for effective peptide concentration equivalent at maximal inhibition, phage-display format: five peptide copies per M13 virion at ≈10^13 virions ml^−1. On the procedure: The bioactivities of two inhibitory phage-display peptide clones, M13-Sp2 and M13-Sp39, identified in initial assessments were estimated over a range of concentrations including 0.5, 1.0, and 1.5×10^13 virions ml^−1. As before, a 25-μl water droplet containing ≈300 urediniospores was incubated at 22° C. (4) on a microscope slide in the presence of M13-Sp2 or M13-Sp39 at each concentration. Urediniospores in these and all subsequent experiments were derived from the Missouri population, MOS-2008. Control treatments included urediniospores incubated either in water or an equivalent concentration of phage from an unselected library. Spore germination and germ tube growth were visualized over time and quantified by image capture and analyses using MetaMorph software (Version 6.2r6, Universal Imaging, Downington, Pa.). Germ tube length was measured using a line scan function based on conversion of image pixels to length. Germ tube length was averaged from 50 randomly selected germinated urediniospores in each image and across four experimental replicates per treatment.

Assay [3] shares this test system. As to the kind of experiment: In vitro inhibition of urediniospore germ tube growth by ZmCKX1-peptides. The class given is cell-based. The following applies: ZmCKX1 scaffold-display format. On the procedure: Purified ZmCKX1-Sp2 and ZmCKX1-Sp39 peptides were assessed in vitro for the ability to inhibit urediniospore germination. A 25-μl water droplet containing 300 freshly harvested MOS-2008 urediniospores was incubated on a glass slide in the presence of either ZmCKX1-Sp2 or ZmCKX1-Sp39. Control treatments included urediniospores incubated in water or in the presence of ZmCKX1 alone. Germ tube growth was visualized over time and quantified by image capture and analyses as described previously.

Consider “DHIRISTSYKSP (Random peptide insert) [Sp51, 12-mer phage-display selected peptide]”, for which the “Frequency of germ tube inhibition over 10 trials” value in assay [1] is 3.
As for “YNKPSFQDHSVI (Random peptide insert) [Sp39]”, the “Frequency of germ tube inhibition over 10 trials” value in assay [1] stood at 7. In addition, in assay [2], the “effective peptide concentration equivalent at maximal inhibition, phage-display format” value was 10 nM and the “concentration of maximal inhibition of germ tube elongation, phage-display format” value is recorded as “≈ 10^13 virions ml^−1”. The “concentration of maximum germ tube inhibition, displayed on ZmCKX1 scaffold” value in assay [3] amounted to 115 µM.
In the case of “STVASLGKPTKI (Random peptide insert) [Sp8, 12-mer phage-display selected peptide]”, in assay [1], the “Frequency of germ tube inhibition over 10 trials” value is 4.
Same read-out and setting: then “ASTIGNLMPGHS (Random peptide insert) [Sp14, 12-mer phage-display selected peptide]”, with 5.
With “MLESHAWPPRAI (Random peptide insert) [Sp2]”, the “Frequency of germ tube inhibition over 10 trials” value in assay [1] is recorded as 8. For the same sequence, in assay [2], the “effective peptide concentration equivalent at maximal inhibition, phage-display format” value came to 10 nM and the “concentration of maximal inhibition of germ tube elongation, phage-display format” value is on record as “≈ 10^13 virions ml^−1”. In addition, the “concentration of maximum germ tube inhibition, displayed on ZmCKX1 scaffold” value in assay [3] turned out to be 115 µM.
As for “LTKEPATGRAML (Random peptide insert) [Sp18, 12-mer phage-display selected peptide]”, the “Frequency of germ tube inhibition over 10 trials” value in assay [1] is on record as 6.
For “YISPLPNAATIS (Random peptide insert) [Sp5, 12-mer phage-display selected peptide]”, in assay [1], the “Frequency of germ tube inhibition over 10 trials” value is 3.
Turning to “TFDRHILDTRGS (Random peptide insert) [Sp6, 12-mer phage-display selected peptide]”, the “Frequency of germ tube inhibition over 10 trials” value in assay [1] is given as 3.
On to “FDPHEPTNTRSP (Random peptide insert) [Sp15, 12-mer phage-display selected peptide]”, for which the “Frequency of germ tube inhibition over 10 trials” value in assay [1] amounted to 6.
Same read-out and setting: then “TPTRSLDSPHNM (Random peptide insert) [Sp59, 12-mer phage-display selected peptide]”, with 4.
On the same count and under the same terms, for “DRFTSDLRAPDS (Random peptide insert) [Sp61, 12-mer phage-display selected peptide]” the value was 3.
